US5256686A, “Phenylalkan(en)oic acid” (Ono Pharmaceutical Co., Ltd., priority 1989, dated 1993)
pIC50: −log10 of the molar value.

Target: T1, human PMNL LTB4 receptor (Homo sapiens, UniProt Q15722)
T1 construct: endogenous in cells; host or cells: human polymorphonuclear leukocytes (PMNL), intact cells
Test: Binding affinity of 3H-LTB4 antagonist to human PMNL LTB4 receptor (inhibition of specific 3H-LTB4 binding)
Settings: 1 nM 3H-LTB4, human PMNLs, 4° C., 20 min
Method: Human PMNLS (1×10^7 cells) were incubated with 1 nM ^3 H-LTB4 in Hanks balanced salt solution (1 ml) at 4° C. for 20 min. in the presence or absence of increasing concentrations of unlabeled LTB4 or various compounds. Free ^3 H-LTB4 was separated from PMNLs-bound ligands by vacuum filteration through Whatman GF/B or C glass fiber filters. The filters were then washed rapidly 4 times with 2.5 ml of the ice-cold phosphate buffered saline. The radioactivity retained in the filter was determined by liquid scintillation counting. Specific binding was defined as the difference between total binding and binding in the presence of 3 μM LTB4 (nonspecific binding). The inhibitory effect of specific ^3 H-LTB4 binding was calculated from the following equation.
The percentage of inhibition (%)=100-(B1 /B0 ×100)
B1 : specific ^3 H-LTB4 binding in presence of antagonist
B0 : specific ^3 H-LTB4 binding in absence of antagonist

T1 sequence (Q15722 whole entry): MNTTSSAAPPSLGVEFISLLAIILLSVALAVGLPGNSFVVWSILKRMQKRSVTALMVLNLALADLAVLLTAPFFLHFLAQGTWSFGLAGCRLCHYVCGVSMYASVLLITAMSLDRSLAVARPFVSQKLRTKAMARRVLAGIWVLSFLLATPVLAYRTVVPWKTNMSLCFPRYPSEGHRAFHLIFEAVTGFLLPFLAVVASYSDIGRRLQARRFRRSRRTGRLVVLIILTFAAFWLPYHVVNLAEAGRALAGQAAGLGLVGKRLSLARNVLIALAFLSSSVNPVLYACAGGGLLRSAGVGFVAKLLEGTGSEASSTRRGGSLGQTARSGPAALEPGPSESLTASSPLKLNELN

Compound | pIC50
CCCCCCCCCCCCOc1ccc(NC(=O)CCCC(=O)N(C)C)cc1CCC(=O)O [1 (c), 3-[1-n-dodecyloxy-4-(4-dimethylaminocarbonylbutanamido)benzen-2-yl]propionic acid] | 6.00
CCCOc1ccc(/C=C/CCCCOc2ccc(NC(=O)CCCC(=O)N(C)C)cc2CCC(=O)O)cc1 [1 (e), 3-[1-[6-(4-n-propoxyphenyl)hex-5E-enyl]oxy-4-(4-dimethylaminocarbonylbutanamido)benzen-2-yl]propionic acid] | 7.10
C=CCOc1ccc(/C=C/CCCCOc2ccc(NC(=O)CCCC(=O)N(C)C)cc2CCC(=O)O)cc1 [1 (f), 3-[1-[6-[4-(2-propenyl)oxyphenyl]hex-5E-enyl]oxy-4-(4-dimethylaminocarbonylbutanamido)benzen-2-yl]propionic acid] | 7.30
CCCCCOc1ccc(/C=C/CCCCOc2ccc(NC(=O)CCCC(=O)N(C)C)cc2CCC(=O)O)cc1 [1 (i), 3-[1-[6-(4-n-pentyloxyphenyl)hex-5E-enyl]oxy-4-(4-dimethylaminocarbonylbutanamido)benzen-2-yl]propionic acid] | 6.40
COc1ccc(CCCCCCOc2ccc(NC(=O)CCCC(=O)N(C)C)cc2CCC(=O)O)cc1 [1 (j), 3-[1-[6-(4-methoxyphenyl)-n-hexyl]oxy-4-(4-dimethylaminocarbonylbutanamido)benzen-2-yl]propionic acid] | 6.70
COc1cccc(/C=C/CCCCOc2ccc(NC(=O)CCCC(=O)N(C)C)cc2CCC(=O)O)c1 [1 (m), 3-[1-[6-(3-methoxyphenyl)hex-5E-enyl]oxy-4-(4-dimethylaminocarbonylbutanamido)benzen-2-yl]propionic acid] | 6.31
COc1ccc(/C=C/CCCCOc2ccc(NC(=O)CCCC(=O)N3CCc4ccccc43)cc2CCC(=O)O)cc1 [1 (n), 3-[1-[6-(4-methoxyphenyl)hex-5E-enyl]oxy-4-[4-(1-indolinyl)carbonylbutanamido]benzen-2-yl]propionic acid] | 7.15
CSc1ccc(/C=C/CCCCOc2ccc(NC(=O)CCCC(=O)N(C)C)cc2CCC(=O)O)cc1 [1 (q), 3-[1-[6-(4-methylthiophenyl)hex-5E-enyl]oxy-4-(4-dimethylaminocarbonylbutanamido)benzen-2-yl]propionic acid] | 7.30
COc1ccc(/C=C/CCCCOc2ccc(NC(=O)CCCC(=O)N(C)C)cc2CCC(=O)O)cc1OC [1 (r), 3-[1-[6-(3,4-dimethoxyphenyl)hex-5E-enyl]oxy-4-(4-dimethylaminocarbonylbutanamido)benzen-2-yl]propionic acid] | 5.96
Cc1ccc(/C=C/CCCCOc2ccc(NC(=O)CCCC(=O)N(C)C)cc2CCC(=O)O)cc1 [1 (s), 3-[1-[6-(4-methylphenyl)hex-5E-enyl]oxy-4-(4-dimethylaminocarbonylbutanamido)benzen-2-yl]propionic acid] | 6.77
CN(C)C(=O)CCCC(=O)Nc1ccc(OCCCC/C=C/c2ccc(Cl)cc2)c(CCC(=O)O)c1 [1 (t), 3-[1-[6-(4-chlorophenyl)hex-5E-enyl]oxy-4-(4-dimethylaminocarbonylbutanamido)benzen-2-yl]propionic acid] | 6.66
COc1ccc(/C=C/CCCCOc2ccc(NC(=O)c3cccc(C(=O)N(C)C)c3)cc2CCC(=O)O)cc1 [1 (u), 3-[1-[6-(4-methoxyphenyl)hex-5E-enyl]oxy-4-(3-dimethylaminocarbonylbenzamido)benzen-2-yl]propionic acid] | 7.10
COc1ccc(/C=C/CCCCOc2ccc(NC(=O)CCCC(=O)O)cc2/C=C/C(=O)O)cc1 [2 (a), 3-[1-[6-(4-methoxyphenyl)hex-5E-enyl]oxy-4-(4-carboxylbutanamido)benzen-2-yl]-E-acrylic acid] | 6.70
COc1ccc(/C=C/CCCCOc2ccc(NC(=O)c3ccccc3)cc2CCC(=O)O)cc1 [3 (a), 3-[1-[6-(4-methxoyphenyl)hex-5E-enyl]oxy-4-benzamidobenzen-2-yl]propionic acid] | 6.70
